Assay results from US20230234943A1, “TREX1 INHIBITORS AND USES THEREOF” (Tempest Therapeutics, Inc., priority 2020, published 2023).

target: T1, Human TREX1 enzyme (amino acids 1-242) (Homo sapiens, UniProt Q9NSU2); test: Human TREX1 enzymatic assay with dsDNA native oligonucleotide (Picogreen fluorescence); format: biochemical; conditions: 2 mM dithiothreitol in assay buffer; 50 nM dsDNA oligonucleotide; 30 min preincubation at 25° C.; read-out: TREX1/Human + DTT IC50 AVG
T1 construct: Human TREX1 enzyme (amino acids 1-242)
T1 sequence (Q9NSU2 1-242): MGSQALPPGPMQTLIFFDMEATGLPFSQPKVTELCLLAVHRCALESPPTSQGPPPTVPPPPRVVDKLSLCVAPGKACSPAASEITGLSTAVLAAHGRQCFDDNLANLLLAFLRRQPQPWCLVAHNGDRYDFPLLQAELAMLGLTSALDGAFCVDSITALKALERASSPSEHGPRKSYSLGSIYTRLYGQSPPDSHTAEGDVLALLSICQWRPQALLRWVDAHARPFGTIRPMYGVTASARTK
Description: Example A. Human TREX1 Enzymatic Assay with dsDNA Native Oligonucleotide
Human TREX1 enzyme (amino acids 1-242) was diluted in assay buffer (20 mM Tris pH 7.7, 5 mM MgCl2, 0.01% human serum albumin, 0.01% Brij™-35, 2 mM dithiothreitol) to a final concentration of 0.8 nM to 0.16 nM and added to a 96-well low-binding polypropylene plate. Test compounds were diluted in DMSO to 50× concentration (final DMSO concentration in reaction mixture of 2%) and added to the wells with a concentration ranging from 300 μM to 13 nM or 30 μM to 1.5 nM. The reaction mixtures were incubated for 30 minutes at 25° C. and a solution of annealed dsDNA oligonucleotide (5′-[…]-3′ and Comp: 5′-[…]-3′) was added to a final concentration of 50 nM. The reaction mixtures were incubated at 25° C. for 5-15 minutes and subsequently quenched by transferring part of the assay reaction to a solution of 100 mM ethylenediaminetetraacetic acid and 1:100 Picogreen™ (final concentration of […]) in a black plate with an opaque bottom. The fluorescence ([…]) was measured using a Molecular Devices SpectraMax plate reader. Wells containing oligonucleotide but no TREX1 enzyme were used as negative controls. Wells containing oligonucleotide, TREX1 enzyme, and DMSO were used as positive controls.

Q: For CC(C)COc1cc(-c2nc3cccnc3n2CC(C)C)cc(O)c1O [Example 40, 3-isobutoxy-5-(3-isobutyl-3H-imidazo[4,5-b]pyridin-2-yl)benzene-1,2-diol], which IC50 is on record?
A: > 100 µM

Q: For COc1cc(-c2nc3cc(N4CCOCC4)ccc3s2)cc(O)c1O [Example 156, 3-methoxy-5-(5-morpholinobenzo[d]thiazol-2-yl)benzene-1,2-diol], which IC50 is on record?
A: 10 to 100 µM

Q: COC(=O)c1ccc2nc(-c3cc(OC)c(O)c(O)c3F)n(C3(C)COC3)c2c1 [Example 211, methyl 2-(2-fluoro-3,4-dihydroxy-5-methoxyphenyl)-1-(3-methyloxetan-3-yl)-1H-benzo[d]imidazole-6-carboxylate] was tested. Which IC50 did it give?
A: ≤ 0.1 µM

Q: Which IC50 does the source give for COc1cc(-c2nc3cc(N4CCN(C(=O)c5ccccc5Cl)CC4)ccc3[nH]2)cc(O)c1O [Example 111, (2-chlorophenyl)(4-(2-(3,4-dihydroxy-5-methoxyphenyl)-1H-benzo[d]imidazol-5-yl)piperazin-1-yl)methanone] here?
A: 1 to 10 µM

Q: How did the IC50 turn out when COc1cc(-c2nc3ccc(C(=O)NC4CCN(C)C4)cc3n2C2(C)COC2)c(F)c(O)c1O (stereo not shown) [Example 257, 2-(2-fluoro-3,4-dihydroxy-5-methoxyphenyl)-1-(3-methyloxetan-3-yl)-N-(1-methylpyrrolidin-3-yl)-1H-benzo[d]imidazole-6-carboxamide] was run?
A: 0.1 to 1 µM

Q: Which IC50 does the source give for COc1cc(-c2nc3cc(N4CCN(C(=O)c5ccccc5)CC4)ccc3[nH]2)c(F)c(O)c1O [Example 159, (4-(2-(2-fluoro-3,4-dihydroxy-5-methoxyphenyl)-1H-benzo[d]imidazol-5-yl)piperazin-1-yl)(phenyl)methanone] here?
A: 1 to 10 µM

Q: With COCCn1c(-c2cc(OC)c(O)c(O)c2C)nc2ccccc21 [Example 172, 6-methoxy-4-[1-(2-methoxyethyl)-1H-1,3-benzodiazol-2-yl]-3-methylbenzene-1,2-diol] as the compound, how does the IC50 read?
A: > 100 µM

Q: COc1cc(-c2nc3cc(N4CCNCC4)ccc3[nH]2)cc(O)c1O [Example 18, 3-methoxy-5-(5-(piperazin-1-yl)-1H-benzo[d]imidazol-2-yl)benzene-1,2-diol] was tested. Which IC50 did it give?
A: > 100 µM

Q: For O=C(O)c1cc(-c2nc3cc(N4CCOCC4)ccc3[nH]2)ccc1O [Example 140, 2-hydroxy-5-(5-morpholino-1H-benzo[d]imidazol-2-yl)benzoic acid], which IC50 is on record?
A: 10 to 100 µM

Q: COc1cc(-c2nc3ccc(N4CCC4)cc3n2C2COC2)c(F)c(O)c1O [Example 288, 4-(6-(azetidin-1-yl)-1-(oxetan-3-yl)-1H-benzo[d]imidazol-2-yl)-3-fluoro-6-methoxybenzene-1,2-diol] was tested. Which IC50 did it give?
A: 1 to 10 µM

Q: With COc1cc(-c2nc3ccc(S(=O)(=O)N(C)C)cc3n2C2(C)COC2)c(F)c(O)c1O [Example 228, 2-(2-fluoro-3,4-dihydroxy-5-methoxyphenyl)-N,N-dimethyl-1-(3-methyloxetan-3-yl)-1H-benzo[d]imidazole-6-sulfonamide] as the compound, how does the IC50 read?
A: 10 to 100 µM

Q: How did the IC50 turn out when O=C(O)c1ccc(-c2nc3ccccc3n2C2COC2)cc1O [Example 56, 2-hydroxy-4-(1-(oxetan-3-yl)-1H-benzo[d]imidazol-2-yl)benzoic acid] was run?
A: > 100 µM

Q: With COc1cc(-c2nc3ccc(S(=O)(=O)Nc4ccccc4)cc3n2C(CO)CCl)cc(O)c1O (stereo not shown) [Example 42, 1-(1-chloro-3-hydroxypropan-2-yl)-2-(3,4-dihydroxy-5-methoxyphenyl)-N-phenyl-1H-benzo[d]imidazole-6-sulfonamide] as the compound, how does the IC50 read?
A: 10 to 100 µM

Q: Which IC50 does the source give for COc1cccc(C(=O)N2CCN(c3ccc4[nH]c(-c5cc(O)c(O)c(OC)c5)nc4c3)CC2)c1 [Example 124, (4-(2-(3,4-dihydroxy-5-methoxyphenyl)-1H-benzo[d]imidazol-5-yl)piperazin-1-yl)(3-methoxyphenyl)methanone] here?
A: 1 to 10 µM

Q: For COc1cc(-c2nc3c(C)cccc3[nH]2)cc(O)c1O [Example 21, 3-methoxy-5-(4-methyl-1H-benzo[d]imidazol-2-yl)benzene-1,2-diol], which IC50 is on record?
A: > 100 µM

Q: How did the IC50 turn out when COc1cc(-c2nc3cc(N4CCC4)ccc3n2C2CCOC2)cc(C(=O)O)c1O (stereo not shown) [Example 28, 5-(5-(azetidin-1-yl)-1-(tetrahydrofuran-3-yl)-1H-benzo[d]imidazol-2-yl)-2-hydroxy-3-methoxybenzoic acid] was run?
A: 10 to 100 µM

Q: Which IC50 does the source give for COc1cc(-c2nc3ccccc3n2C2CN(S(C)(=O)=O)C2)c(C)c(O)c1O [Example 322] here?
A: 10 to 100 µM

Q: How did the IC50 turn out when COc1cc(-c2nc3cc(N4CCN(C(=O)c5ccc(Cl)cc5)CC4)ccc3[nH]2)cc(O)c1O [Example 84, (4-chlorophenyl)(4-(2-(3,4-dihydroxy-5-methoxyphenyl)-1H-benzo[d]imidazol-5-yl)piperazin-1-yl)methanone] was run?
A: > 100 µM

Q: For COc1cc(-c2nc3cc(N4CCOCC4)ccc3n2C2CCOC2)cc(O)c1O (stereo not shown) [Example 95, 3-methoxy-5-(5-morpholino-1-(tetrahydrofuran-3-yl)-1H-benzo[d]imidazol-2-yl)benzene-1,2-diol], which IC50 is on record?
A: 10 to 100 µM

Q: For COc1cc(-c2nc3cc(O)ccc3[nH]2)c(C)c(O)c1O [Example 183, 4-(5-hydroxy-1H-1,3-benzodiazol-2-yl)-6-methoxy-3-methylbenzene-1,2-diol], which IC50 is on record?
A: 10 to 100 µM

Q: Which IC50 does the source give for COc1cc(-c2nc3cc(N4CCN(C(C)=O)CC4)ccc3n2C(C)=O)cc(O)c1O [Example 27, 1-(4-(1-acetyl-2-(3,4-dihydroxy-5-methoxyphenyl)-1H-benzo[d]imidazol-5-yl)piperazin-1-yl)ethanone] here?
A: 10 to 100 µM

Q: For COc1cc(-c2nc3ccc(-c4ccn[nH]4)cc3n2C2(C)COC2)c(F)c(O)c1O [Example 295, 3-fluoro-6-methoxy-4-(1-(3-methyloxetan-3-yl)-6-(1H-pyrazol-5-yl)-1H-benzo[d]imidazol-2-yl)benzene-1,2-diol], which IC50 is on record?
A: ≤ 0.1 µM

Q: COc1cc(-c2nc3ccc(C(=O)Nc4ccccc4)cc3n2C2(C)COC2)c(F)c(O)c1O [Example 246, 2-(2-fluoro-3,4-dihydroxy-5-methoxyphenyl)-1-(3-methyloxetan-3-yl)-N-phenyl-1H-benzo[d]imidazole-6-carboxamide] was tested. Which IC50 did it give?
A: ≤ 0.1 µM

Q: Which IC50 does the source give for COc1cc(-c2nc3ccc(C(C)(C)O)cc3n2C2(C)COC2)c(F)c(O)c1O [Example 185, 3-fluoro-4-[6-(2-hydroxypropan-2-yl)-1-(3-methyloxetan-3-yl)-1H-1,3-benzodiazol-2-yl]-6-methoxybenzene-1,2-diol] here?
A: 1 to 10 µM

Q: Which IC50 does the source give for COc1cc(-c2nc3ccc(-n4cccn4)cc3n2C2(C)COC2)c(F)c(O)c1O [Example 184, 3-fluoro-6-methoxy-4-[1-(3-methyloxetan-3-yl)-6-(1H-pyrazol-1-yl)-1H-1,3-benzodiazol-2-yl]benzene-1,2-diol] here?
A: ≤ 0.1 µM

Q: How did the IC50 turn out when COc1cc(-c2nc3ccncc3[nH]2)c(-c2cccnc2)c(O)c1O [Example 79, 4-(3H-imidazo[4,5-c]pyridin-2-yl)-6-methoxy-3-(pyridin-3-yl)benzene-1,2-diol] was run?
A: > 100 µM

Q: For COc1cc(-c2nc3ccccc3n2C23CC(C2)C3)c(C)c(O)c1O [Example 291, 4-(1-(bicyclo[1.1.1]pentan-1-yl)-1H-benzo[d]imidazol-2-yl)-6-methoxy-3-methylbenzene-1,2-diol], which IC50 is on record?
A: 0.1 to 1 µM

Q: With CNCc1ccc2nc(-c3cc(OC)c(O)c(O)c3F)n(C3(C)COC3)c2c1 [Example 186, 3-fluoro-6-methoxy-4-(6-((methylamino)methyl)-1-(3-methyloxetan-3-yl)-1H-benzo[d]imidazol-2-yl)benzene-1,2-diol] as the compound, how does the IC50 read?
A: 1 to 10 µM

Q: COc1cc(-c2nc3cc(N4C[C@H]5CC[C@@H](C4)N5C(=O)c4ccccc4)ccc3[nH]2)cc(O)c1O [Example 136] was tested. Which IC50 did it give?
A: > 100 µM

Q: For COc1cc(-c2nc3cc(N4CCN(C(=O)c5ccc(C(=O)O)cc5)CC4)ccc3[nH]2)cc(O)c1O [Example 127, 4-(4-(2-(3,4-dihydroxy-5-methoxyphenyl)-1H-benzo[d]imidazol-5-yl)piperazine-1-carbonyl)benzoic acid], which IC50 is on record?
A: 10 to 100 µM

Q: For CNS(=O)(=O)c1ccc2nc(-c3cc(OC)c(O)c(O)c3F)n(C3(C)COC3)c2c1 [Example 325, 2-(2-fluoro-3,4-dihydroxy-5-methoxyphenyl)-N-methyl-1-(3-methyloxetan-3-yl)-1H-benzo[d]imidazole-6-sulfonamide], which IC50 is on record?
A: 10 to 100 µM

Q: For COc1cc(-c2nc3cc(N4CCNC(C)(C)C4)ccc3[nH]2)cc(O)c1O [Example 91, 5-(5-(3,3-dimethylpiperazin-1-yl)-1H-benzo[d]imidazol-2-yl)-3-methoxybenzene-1,2-diol], which IC50 is on record?
A: 10 to 100 µM

Q: Which IC50 does the source give for COc1cc(-c2nc3cc(NC(=O)c4ccccc4)ccc3n2C2(C)COC2)c(F)c(O)c1O [Example 303, N-(2-(2-fluoro-3,4-dihydroxy-5-methoxyphenyl)-1-(3-methyloxetan-3-yl)-1H-benzo[d]imidazol-5-yl)benzamide] here?
A: ≤ 0.1 µM

Q: With COc1cc(-c2nc3ccc(N4CCC4)cc3n2C2COC2)c(C)c(O)c1O [Example 283, 4-(6-(azetidin-1-yl)-1-(oxetan-3-yl)-1H-benzo[d]imidazol-2-yl)-6-methoxy-3-methylbenzene-1,2-diol] as the compound, how does the IC50 read?
A: 1 to 10 µM
